According to EPA's ToxValDB 9.5 (doi:10.2903/j.efsa.2017.4852):

Columns and labels:
[1] = test system: Anas platyrhynchos; settings: acute; oral; unspecified; mortality
[2] = test system: Apis mellifera; settings: acute, mortality
[3] = test system: Bibionidae; settings: chronic/long-term; duration: 28 days
[4] = test system: Colinus virginianus
[5] = test system: Folsomia candida; settings: chronic/long-term; reproduction
[6] = test system: Mus musculus; settings: acute; oral; mortality
[7] = test system: Oryctolagus sp.; settings: developmental; development
[8] = test system: Rattus norvegicus
[9] = test system: Tagia sp.; settings: chronic/long-term; reproduction
[10] = test system: Chrysoperla externa; assay: LR50; higher = less toxic; settings: not reported; mortality

CC#Cc1cc(C)nc(Nc2ccccc2)n1 [Mepanipyrim]
LD50 [1]: > 2250 mg/kg-day
LD50 ([2]; dermal): > 80 µg/piece
LD50 ([2]; oral, unspecified): > 50 µg/piece
NOEC [3]: 4.67 mg/kg
LD50 ([4]; acute, oral, mortality): > 2250 mg/kg-day
NOEC ([4]; reproduction developmental, reproduction): 100 mg/kg-day
NOEC [5]: 58.4 mg/kg
LD50 [6]: > 2650 mg/kg-day
NOAEL [7]: 10 mg/kg-day
LD50 ([8]; acute, oral, mortality): > 2650 mg/kg-day
LOAEL ([8]; chronic, morphology): 2.45 mg/kg-day
LOAEL ([8]; reproduction developmental, histopathology: nonneoplastic): 2.45 mg/kg-day
NOEC [9]: 113 mg/kg
LR50 [10]: > 500 g/ha
